Source: US20220062317A1, “NA+/K+ ATPASE INHIBITORS FOR USE IN THE PREVENTION OR TREATMENT OF METASTASIS” (UNIVERSITÄT BASEL, priority 2018, published 2022)
“And” between values parts separate entries of the source, which are not always exact repeats. Equal entries are not always repeated.

Assays:
[1] = tested on: BRx50 human CTC-derived cells; assay: FDA-approved compound screen for CTC cluster dissociation (high content imaging); format: cell-based; details: even at lowest concentration tested (0.1 μM)
[2] = tested on: BR16 CTC cell line; assay: 17-day treatment, WGBS and i-cisTarget analysis of DMRs that gain methylation; format: cell-based, human; details: 20 nM
Method: (§1) In order to assess the effect of clustering on DNA methylation patterns and proliferation signature directly BR16 and BRx50 cell lines were cultured for 17 days to ensure that at least 4 divisions would take place. This is to allow proper time for DNA methylation remodeling to take place.
(§2) Under these conditions, for both CTC derived cell lines, a subset of cluster-associated hypomethylated DMRs from patient and xenografts regain ≥20% methylation.
(§3) Proteinase K digestion and bisulfite treatment was performed according to manufacturer's instructions for EZ DNA Methylation Direct Kit (Zymo, Cat #D5020). Bisulfite-treated DNA was eluted using 9 μl of Elution Buffer and used for library generation with TruSeq DNA methylation kit (Illumina, Cat #EGMK91396) according to manufacturer's instructions. For amplification, 18 cycles were performed using Failsafe Enzyme (Illumina, Cat #FSE51100) and indexes were introduced with Index Primers' Kit (Illumina, Cat #EGIDX81312). Library purification was performed using Agencourt AMPure XP beads at a ratio of 1:1 according to manufacturer's instructions. To avoid DNA loss during pipetting steps, Corning DeckWork low binding barrier pipet tips were used (Sigma, Cat #CLS4135-4X960EA). Library concentration was estimated using Qubit DS DNA HS Assay Kit according to manufacturer's instructions (Invitrogen, Cat #Q32854).
(§4) An enrichment score (ES) indicates the over- or underrepresentation of a certain object within a sample of many objects (=enrichment). […] A negative enrichment score indicates the opposite, namely that a feature is less present than to be expected by the values of other features in the sample. […] An enrichment score can be normalized by dividing a specific ES by the mean of the enrichment scores for all objects in the dataset to yield a normalized enrichment score (NES). Normalization of the enrichment score accounts for differences in gene set size and in correlations between gene sets and the expression dataset; therefore, a normalized enrichment scores (NES) can be used to compare analysis results across gene sets. Only TFBS with a NES score […] shown in the analysis.

[3] = tested on: BRx50 CTC cell line; assay: as above; format: cell-based, human; details: 20 nM
Method: as §1, §2, §3, §4

[4] = tested on: BR16 cells; assay: Tail vein injection of in vitro pre-treated BR16 cells, metastasis seeding; format: in vivo, NSG mice
Method: To test whether ouabain and digitoxin would also enable CTC clusters disruption in vivo, the inventors took a dual approach. First, the inventors tested whether a 17-day in vitro treatment with ouabain and digitoxin would translate into a reduced ability of the treated cells to efficiently seed metastasis in untreated mice (FIG. 7A). To this end, upon treatment, BR16 cells stably expressing GFP-luciferase were injected into the tail vein of NSG mice and noninvasively monitored through luminescence imaging for their ability to seed and propagate metastatic lesions.
For tail vein experiments, NOD SCID Gamma (NSG) mice (Jackson Labs) were injected with 1×10^6 BR16-mCherry cells resuspended in 100 μl D-PBS and monitored with IVIS Lumina II (Perkin Elmer). For CTC xenograft mouse model isolation, 1×10^6 LM2-GFP, 1×10^6 BRx50-GFP or 1×10^6 BR16-GFP cells were resuspended in 100 μl of 50% Cultrex PathClear Reduced Growth Factor Basement Membrane Extract (R&D Biosystems, Cat #3533-010-02) in D-PBS and injected orthotopically in NSG mice. Blood draw was performed 4-5 weeks after tumor onset for LM2 cells, 5-6 months after tumor onset for BR16 and 6-7 months after tumor onset for BRx50 cells.

[5] = tested on: LM2 xenografts; assay: LM2 xenograft, spontaneous CTC clusters and metastasis; format: in vivo, NSG mice; details: LM2 tumors; ouabain treatment

SMILES: C[C@@H]1O[C@@H](O[C@H]2C[C@@H](O)[C@]3(CO)[C@H]4[C@H](O)C[C@]5(C)[C@@H](C6=CC(=O)OC6)CC[C@]5(O)[C@@H]4CC[C@]3(O)C2)[C@H](O)[C@H](O)[C@H]1O [ouabain, Ouabain]
- mean cluster size [1]: significant decrease in mean cluster size
- NES score of TFBS BDP1 in DMRs with ≥20% gain in methylation ([2]; 17-day treatment): 5.64
- NES score of TFBS CEBPD in DMRs with ≥20% gain in methylation ([2]; 17-day treatment): 4.05
- NES score of TFBS FOS in DMRs with ≥20% gain in methylation ([2]; 17-day treatment): 7.29 and 6.04
- NES score of TFBS FOXG1/O1 in DMRs with ≥20% gain in methylation ([2]; 17-day treatment): 3.74 and 3.39
- NES score of TFBS HMBOX1 in DMRs with ≥20% gain in methylation ([2]; 17-day treatment): 3.89
- NES score of TFBS HSF1 in DMRs with ≥20% gain in methylation ([2]; 17-day treatment): 3.71
- NES score of TFBS IRF4 in DMRs with ≥20% gain in methylation ([2]; 17-day treatment): 3.244
- NES score of TFBS IRX3 in DMRs with ≥20% gain in methylation ([2]; 17-day treatment): 3.63
- NES score of TFBS IRX6 in DMRs with ≥20% gain in methylation ([2]; 17-day treatment): 3.63
- NES score of TFBS KDM5D in DMRs with ≥20% gain in methylation ([2]; 17-day treatment): 3.11
- NES score of TFBS MEIS1 in DMRs with ≥20% gain in methylation ([2]; 17-day treatment): 3
- NES score of TFBS NANOG in DMRs with ≥20% gain in methylation ([2]; 17-day treatment): 3.349 and 3.28
- NES score of TFBS OCT4 in DMRs with ≥20% gain in methylation ([2]; 17-day treatment): 3.2 and 3.13 and 3.204
- NES score of TFBS SIX4/5 in DMRs with ≥20% gain in methylation ([2]; 17-day treatment): 6.27 and 6.16
- NES score of TFBS SOX2 in DMRs with ≥20% gain in methylation ([2]; 17-day treatment): 4.82 and 4.51 and 4.24 and 3.28
- NES score of TFBS SOX18 in DMRs with ≥20% gain in methylation ([2]; 17-day treatment): 3.2
- NES score of TFBS SRY in DMRs with ≥20% gain in methylation ([2]; 17-day treatment): 6.46 and 6.36
- NES score of TFBS TPPP in DMRs with ≥20% gain in methylation ([2]; 17-day treatment): 3.1
- NES score of TFBS YAP5 in DMRs with ≥20% gain in methylation ([2]; 17-day treatment): 3.55 and 3.08
- NES score of TFBS YY2 in DMRs with ≥20% gain in methylation ([2]; 17-day treatment): 6.5,
- NES score of TFBS ZNF274 in DMRs with ≥20% gain in methylation ([2]; 17-day treatment): 4.59 and 3.01
- NES score of TFBS ZNF594 in DMRs with ≥20% gain in methylation ([2]; 17-day treatment): 4.84
- number of DMRs with ≥20% gain in methylation ([2]; 17-day treatment): n = (108)
- gain of methylation in DMRs containing binding sites for stemness-related TFs ([2]; 17 days): simultaneously affecting the binding sites of OCT4, SOX2 and NANOG
- NES score of TFBS BCL11A in DMRs with ≥20% gain in methylation [3]: 3.8 and 3.69
- NES score of TFBS FOS in DMRs with ≥20% gain in methylation [3]: 3.91
- NES score of TFBS FOXG1/O1 in DMRs with ≥20% gain in methylation [3]: 3.53 and 3.25 and 3.1
- NES score of TFBS HMBOX1 in DMRs with ≥20% gain in methylation [3]: 3.35 and 3.30 and 3.22
- NES score of TFBS IRX6 in DMRs with ≥20% gain in methylation [3]: 3.8
- NES score of TFBS MEIS1 in DMRs with ≥20% gain in methylation [3]: 4.09
- NES score of TFBS NANOG in DMRs with ≥20% gain in methylation [3]: 3.61
- NES score of TFBS OCT4 in DMRs with ≥20% gain in methylation [3]: 3.42
- NES score of TFBS RORA in DMRs with ≥20% gain in methylation [3]: 4.02 and 3.75
- NES score of TFBS SIX4/5 in DMRs with ≥20% gain in methylation [3]: 3.87 and 3.65
- NES score of TFBS SOX18 in DMRs with ≥20% gain in methylation [3]: 3.11
- NES score of TFBS YY2 in DMRs with ≥20% gain in methylation [3]: 3.56
- NES score of TFBS ZNF493 in DMRs with ≥20% gain in methylation [3]: 3.12
- number of DMRs with ≥20% gain in methylation [3]: (n = 121)
- expression of cleaved caspase 3 compared to control cells ([4]; cancer cells in lungs, pre-treated cells, day 1): significant increase
- ability of BR16 cells to lodge in the lung tissue immediately after injection (bioluminescence flux) ([4]; cells pre-treated 17 days in vitro, 20 nM, tail vein, day 0): did not affect
- ability to survive during the first day upon arrival (bioluminescence flux) ([4]; cells pre-treated 17 days in vitro, 20 nM, tail vein, day 1): reduced ability to survive
- metastatic outgrowth ([4]; pre-treated cells, no further treatment in vivo, 72 days upon injection): delayed metastatic outgrowth
- CTC clusters (proportion) [5]: decrease in CTC clusters
- metastatic burden compared to control [5]: reduced metastatic burden
- overall CTC numbers [5]: without any change
- primary tumor size [5]: without any change
- proportion of single CTCs [5]: increase in the proportion of single CTCs
